Assays:
[1] = target: human MRP2 (Homo sapiens, UniProt Q92887); assay: Vesicular transport assay, inside-out membrane vesicles expressing human MRP2; conditions: for TransportATP/TransportAMP ratio (net transport ratio): 10 min
Procedure: (§1) Inside-out membrane vesicles (5 mg protein/mL), prepared from insect cells expressing human multidrug resistance-associated protein (MRP) 2, MRP3, MRP4, breast cancer resistance protein (BCRP), bile salt export pump (BSEP), and multidrug resistance protein (MDR) one and rat Mrp2, Mrp4, Bcrp, and Bsep, and vesicles (5 mg protein/mL; prepared from the insect cells expressing no ABC transporter; serving as negative control) were obtained from Genomembrane (Kanazawa, Japan).
(§2) The test Danshen compounds at 100 µM final concentration were separately incubated with the membrane vesicles for 10 min. Buffer C (50 mM MOPS-tris, 70 mM KCl, 7.5 mM MgCl2, pH 7.0) was used for preincubation and incubation, while buffer D (40 mM MOPS-tris, 70 mM KCl, pH 7.0) was used for vesicle washing. The transport rate (pmol/mg protein/min) of the test Danshen compound was calculated using Equation (2): Transport=(CV×VV)/T/WV (2) where C V, V V, T, and W V represent concentration of the compound in vesicular lysates supernatant (μM), volume of the lysates (μL), incubation time (10 min), and amount of vesicle protein amount per well (0.05 mg), respectively. Differential transport of the test Danshen compound between ATP-containing vesicles and AMP-containing vesicles was defined as net transport ratio (TransportATP/TransportAMP ratio). […] All the incubation samples were analyzed by liquid chromatography/mass spectrometry.

[2] = target: human BSEP (Homo sapiens, UniProt O95342); assay: Vesicular transport assay, inside-out membrane vesicles expressing human BSEP; conditions: 10 min
Procedure: as §1, §2

[3] = target: T1, human OAT1 (Homo sapiens, UniProt Q4U2R8); assay: Cellular transport assay, HEK-293 cells expressing human OAT1; conditions: for TransportTC/TransportMC ratio (net transport ratio): 10 min; for K m: human renal basolateral uptake OAT1, 5 min incubation, concentrations in Table 1
T1 sequence (Q4U2R8 1-563): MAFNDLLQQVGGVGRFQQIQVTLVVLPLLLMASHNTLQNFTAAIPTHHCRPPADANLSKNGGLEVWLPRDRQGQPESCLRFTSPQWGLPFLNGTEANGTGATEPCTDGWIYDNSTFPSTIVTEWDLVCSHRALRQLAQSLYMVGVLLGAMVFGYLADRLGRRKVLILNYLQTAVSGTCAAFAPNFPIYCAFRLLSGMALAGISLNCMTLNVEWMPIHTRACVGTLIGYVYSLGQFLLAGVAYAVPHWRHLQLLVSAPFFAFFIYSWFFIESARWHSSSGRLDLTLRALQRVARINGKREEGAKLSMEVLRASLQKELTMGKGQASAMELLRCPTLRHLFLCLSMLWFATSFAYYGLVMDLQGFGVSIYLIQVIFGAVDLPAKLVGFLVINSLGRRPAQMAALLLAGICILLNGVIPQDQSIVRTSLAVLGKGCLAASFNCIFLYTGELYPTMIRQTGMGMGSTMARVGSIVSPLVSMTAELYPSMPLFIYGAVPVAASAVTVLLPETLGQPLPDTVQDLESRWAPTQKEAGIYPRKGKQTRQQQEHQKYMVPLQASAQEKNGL
Procedure: (§3) Briefly, HEK-293 cells were grown, at 37°C and 5% CO2, in Dulbecco’s modified Eagle’s medium, which was fortified with 10% fetal bovine serum, 1% minimal essential medium nonessential amino acids, and 1% antibiotic-antimycotic solution. A day before transfection, cells were seeded onto 24-well poly-D-lysine-coated plates at a density of 2 × 10^5 cells per well. After incubation at 37°C and 5% CO2 for 24 h, the expression plasmid and the empty vector were introduced separately into the HEK293 cells with Lipofectamine 2000 transfection reagent (Invitrogen, Carlsbad, CA, United States), according to the manufacturer’s protocol to yield transporter-expressing cells and mock cells, respectively.
(§4) Transport studies were performed 48 h after the transfection. […] Differential uptake between the transfected cells and mock cells was defined as net transport ratio (TransportTC/TransportMC ratio), where TransportTC and TransportMC are the transport rates of a test Danshen compound into transfected and mock cells, respectively. […] The determination was performed under linear uptake conditions by incubation for 5 min. Table 1 summarizes the final concentrations of the test Danshen compounds for different transporters. All the incubation samples were analyzed by liquid chromatography/mass spectrometry.
(§5) GraFit software (version 5.0; Erithacus Software Ltd, Surrey, United Kingdom) was used to determine the K m and V max values by nonlinear regression analysis of initial transport rates as a function of substrate concentration.

[4] = target: T2, human OAT3 (Homo sapiens, UniProt Q8TCC7); assay: Cellular transport assay, HEK-293 cells expressing human OAT3; conditions: for TransportTC/TransportMC ratio (net transport ratio): 10 min
T2 sequence (Q8TCC7 1-542): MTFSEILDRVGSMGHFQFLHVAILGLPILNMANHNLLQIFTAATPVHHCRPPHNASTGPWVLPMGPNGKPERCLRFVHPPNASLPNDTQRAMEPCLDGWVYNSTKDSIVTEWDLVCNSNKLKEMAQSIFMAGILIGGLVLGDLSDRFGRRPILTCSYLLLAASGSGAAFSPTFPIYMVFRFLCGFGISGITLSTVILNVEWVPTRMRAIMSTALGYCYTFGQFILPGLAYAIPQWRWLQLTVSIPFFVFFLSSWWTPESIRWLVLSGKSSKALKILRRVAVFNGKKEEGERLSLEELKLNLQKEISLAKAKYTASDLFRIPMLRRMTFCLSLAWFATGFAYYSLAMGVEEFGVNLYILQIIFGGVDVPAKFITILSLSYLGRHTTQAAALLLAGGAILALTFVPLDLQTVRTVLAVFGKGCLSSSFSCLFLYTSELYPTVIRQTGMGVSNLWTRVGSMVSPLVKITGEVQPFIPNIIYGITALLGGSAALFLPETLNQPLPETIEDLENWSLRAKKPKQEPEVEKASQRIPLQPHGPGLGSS
Procedure: as §3, §4, §5

[5] = Danshen phenolic acid at 100 μM final concentration, human MRP2 vesicles
[6] = Danshen phenolic acid at 100 μM final concentration, human BSEP vesicles
[7] = Danshen phenolic acid at 100 μM final concentration, human OAT1-transfected vs mock cells
[8] = Danshen phenolic acid at 100 μM final concentration, human OAT3-transfected vs mock cells

human MRP2, sequence (Q92887 whole entry): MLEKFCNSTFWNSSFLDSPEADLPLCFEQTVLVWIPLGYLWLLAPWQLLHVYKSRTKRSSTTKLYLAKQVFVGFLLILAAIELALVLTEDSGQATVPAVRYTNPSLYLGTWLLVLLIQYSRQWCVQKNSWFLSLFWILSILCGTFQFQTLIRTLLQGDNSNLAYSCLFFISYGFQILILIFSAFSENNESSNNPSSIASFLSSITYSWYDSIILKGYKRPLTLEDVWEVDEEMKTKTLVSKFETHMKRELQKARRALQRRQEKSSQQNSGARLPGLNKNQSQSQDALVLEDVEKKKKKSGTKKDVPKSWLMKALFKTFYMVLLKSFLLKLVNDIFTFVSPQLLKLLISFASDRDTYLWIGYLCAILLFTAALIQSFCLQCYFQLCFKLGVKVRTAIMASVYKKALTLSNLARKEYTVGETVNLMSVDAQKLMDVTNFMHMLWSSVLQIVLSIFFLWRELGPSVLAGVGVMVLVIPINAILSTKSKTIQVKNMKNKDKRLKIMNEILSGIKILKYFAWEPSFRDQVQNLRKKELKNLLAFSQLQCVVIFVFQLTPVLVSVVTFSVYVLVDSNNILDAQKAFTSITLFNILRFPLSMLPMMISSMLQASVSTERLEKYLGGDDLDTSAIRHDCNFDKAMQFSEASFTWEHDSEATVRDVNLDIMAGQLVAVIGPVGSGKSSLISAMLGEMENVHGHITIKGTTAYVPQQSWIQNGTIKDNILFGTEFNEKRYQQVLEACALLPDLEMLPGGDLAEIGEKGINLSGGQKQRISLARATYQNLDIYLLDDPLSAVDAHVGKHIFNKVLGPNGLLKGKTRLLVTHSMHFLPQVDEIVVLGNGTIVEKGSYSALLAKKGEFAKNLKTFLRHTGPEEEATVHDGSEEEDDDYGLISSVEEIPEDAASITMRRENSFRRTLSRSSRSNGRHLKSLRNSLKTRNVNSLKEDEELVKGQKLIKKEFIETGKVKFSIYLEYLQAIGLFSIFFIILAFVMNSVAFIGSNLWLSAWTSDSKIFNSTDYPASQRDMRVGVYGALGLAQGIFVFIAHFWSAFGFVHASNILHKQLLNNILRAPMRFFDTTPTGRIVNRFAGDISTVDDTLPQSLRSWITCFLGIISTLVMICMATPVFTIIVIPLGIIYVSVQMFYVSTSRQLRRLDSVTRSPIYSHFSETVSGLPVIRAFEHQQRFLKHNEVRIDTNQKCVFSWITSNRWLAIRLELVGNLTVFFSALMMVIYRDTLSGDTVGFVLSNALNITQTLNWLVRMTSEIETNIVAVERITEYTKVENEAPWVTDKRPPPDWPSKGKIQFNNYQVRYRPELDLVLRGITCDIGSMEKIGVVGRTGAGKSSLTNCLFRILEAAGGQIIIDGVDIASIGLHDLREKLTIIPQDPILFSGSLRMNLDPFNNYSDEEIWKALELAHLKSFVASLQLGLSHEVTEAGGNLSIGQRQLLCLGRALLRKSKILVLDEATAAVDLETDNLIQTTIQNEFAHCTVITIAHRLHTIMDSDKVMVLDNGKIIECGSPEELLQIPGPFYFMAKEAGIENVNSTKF
human BSEP, sequence (O95342 whole entry): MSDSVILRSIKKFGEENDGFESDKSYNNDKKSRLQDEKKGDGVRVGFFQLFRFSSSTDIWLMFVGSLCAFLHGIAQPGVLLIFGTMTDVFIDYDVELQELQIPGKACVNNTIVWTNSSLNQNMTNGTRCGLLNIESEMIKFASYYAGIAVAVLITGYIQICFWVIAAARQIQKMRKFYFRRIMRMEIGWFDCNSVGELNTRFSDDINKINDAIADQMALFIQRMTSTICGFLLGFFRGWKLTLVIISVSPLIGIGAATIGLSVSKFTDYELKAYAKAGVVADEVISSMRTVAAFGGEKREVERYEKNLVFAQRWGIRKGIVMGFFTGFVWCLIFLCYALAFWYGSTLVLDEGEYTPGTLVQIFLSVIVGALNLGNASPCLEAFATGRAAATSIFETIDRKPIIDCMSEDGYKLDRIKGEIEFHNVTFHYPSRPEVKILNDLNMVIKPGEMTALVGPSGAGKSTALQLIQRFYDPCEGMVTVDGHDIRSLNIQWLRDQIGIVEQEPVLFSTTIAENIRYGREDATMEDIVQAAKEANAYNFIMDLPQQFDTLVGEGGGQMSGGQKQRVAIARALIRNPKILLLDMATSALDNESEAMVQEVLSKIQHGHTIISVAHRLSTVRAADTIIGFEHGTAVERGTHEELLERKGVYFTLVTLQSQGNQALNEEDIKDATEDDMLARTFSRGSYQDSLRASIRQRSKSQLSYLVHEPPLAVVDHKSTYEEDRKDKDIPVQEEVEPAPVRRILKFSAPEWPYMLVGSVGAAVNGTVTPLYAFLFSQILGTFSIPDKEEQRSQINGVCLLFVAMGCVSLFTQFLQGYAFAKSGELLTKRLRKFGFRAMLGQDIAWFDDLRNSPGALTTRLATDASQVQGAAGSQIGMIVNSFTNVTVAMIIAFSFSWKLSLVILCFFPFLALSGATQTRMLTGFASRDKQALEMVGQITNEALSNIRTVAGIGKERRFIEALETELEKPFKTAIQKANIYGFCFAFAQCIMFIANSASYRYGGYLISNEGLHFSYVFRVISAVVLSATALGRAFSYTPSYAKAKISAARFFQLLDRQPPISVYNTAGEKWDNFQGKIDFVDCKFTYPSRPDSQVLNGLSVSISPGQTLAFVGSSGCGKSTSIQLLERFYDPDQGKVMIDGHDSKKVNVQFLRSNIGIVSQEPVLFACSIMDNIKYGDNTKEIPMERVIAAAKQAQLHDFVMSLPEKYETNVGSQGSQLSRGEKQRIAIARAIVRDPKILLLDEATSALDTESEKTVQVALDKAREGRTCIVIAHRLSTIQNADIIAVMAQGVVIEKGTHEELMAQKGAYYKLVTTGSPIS

| Molecule | substrate of human MRP2 [1] | TransportATP/TransportAMP ratio (net transport ratio) [1, 5] | TransportATP/TransportAMP ratio (net transport ratio) [2, 6] | TransportTC/TransportMC ratio (net transport ratio) [3, 7] | TransportTC/TransportMC ratio (net transport ratio) [4, 8] | substrate of human OAT1 [3] | microsomal CLint ([3]; human) [µL/min/mg] | K m [3] [µM] | TransportATP/TransportAMP ratio (net transport ratio) ([1]; human, 100 μM, pH 7) | TransportATP/TransportAMP ratio (net transport ratio) ([2]; human, 100 μM, pH 7) | TransportTC/TransportMC ratio (net transport ratio) ([3]; human, 100 μM) | microsomal CLint ([3]; human, other cell line) [µL/min/mg] | TransportTC/TransportMC ratio (net transport ratio) ([4]; human, 100 μM) | K m ([4]; human renal basolateral uptake OAT3, 5 min incubation, concentrations in Table 1) | microsomal CLint ([4]; human, other cell line) [µL/min/mg] |
| --- | --- | --- | --- | --- | --- | --- | --- | --- | --- | --- | --- | --- | --- | --- | --- |
| O=C(/C=C/c1ccc(O)c2c1[C@H](C(=O)O)[C@@H](c1ccc(O)c(O)c1)O2)O[C@H](Cc1ccc(O)c(O)c1)C(=O)O [Lithospermic acid, lithospermic acid] | substrates | 5.02 ± 1.67 | 0.83 ± 0.20 | 2.09 ± 0.89 | 0.96 ± 0.15 |  |  |  |  |  |  |  |  |  |  |
| O=C(O)c1ccc(O)c(O)c1 [Protocatechuic acid, protocatechuic acid] |  | 0.94 ± 0.31 | 0.99 ± 0.21 | 53.1 ± 3.9 | 1.12 ± 0.25 | substrates | 6.43 | 37.6 ± 2.5 |  |  |  |  |  |  |  |
| O=C(/C=C/c1ccc(O)c(O)c1)O[C@H](Cc1ccc(O)c(O)c1)C(=O)O [Rosmarinic acid, rosmarinic acid] |  |  |  |  |  | substrates |  | 70.8 ± 6.4 | 1.13 ± 0.34 | 1.03 ± 0.09 | 46.8 ± 10.9 | 2.55 | 1.56 ± 0.36 |  |  |
| O=C(/C=C/c1ccc(O)c(O)c1/C=C/c1ccc(O)c(O)c1)O[C@H](Cc1ccc(O)c(O)c1)C(=O)O [Salvianolic acid A, salvianolic acid A] |  |  |  |  |  |  |  |  | 1.42 ± 0.31 | 1.32 ± 0.26 | 1.02 ± 0.14 |  | 2.12 ± 0.13 |  |  |
| O=C(O)Cc1c(/C=C/C(=O)O[C@H](Cc2ccc(O)c(O)c2)C(=O)O)ccc(O)c1O [Salvianolic acid D, salvianolic acid D] |  | 1.51 ± 0.73 | 1.19 ± 0.35 | 11.7 ± 2.4 | 1.12 ± 0.56 | substrates | 2.08 | 18.1 ± 2.3 |  |  |  |  |  |  |  |
| O=C(O)C(O)Cc1ccc(O)c(O)c1 (stereo not drawn) [Tanshinol, tanshinol] |  |  |  |  |  |  |  | 98.9 ± 7.1 |  |  |  | 10.5 |  | 1,565 ± 127 μM | 0.11 |
| salvianolic acid B | substrates | 6.21 ± 1.32 | 1.43 ± 0.32 | 1.21 ± 0.14 | 1.03 ± 0.24 |  |  |  |  |  |  |  |  |  |  |
